Experimental data taken from patent US20160009693A1, “HERBICIDAL COMPOUNDS” (SYNGENTA LIMITED, priority 2013, published 2016).

Columns and labels:
Format in all cases: in vivo
Conditions in all cases: applied at 1000 g/h, evaluated after 13 days
[1] = tested on: Amaranthus retoflexus (AMARE); assay: Herbicidal glasshouse test, pre-emergence, AMARE
Summary of the method: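 This pre-emergence glasshouse herbicide test used Amaranthus retoflexus sown in standard soil. After one day of cultivation, an aqueous spray made from the technical ingredient in 50:50 acetone/water with 0.5% Tween 20 was applied. Pots stayed at 24/16° C., 14 hours light, 65% humidity, with twice-daily watering. Damage was rated on a five point scale (1=0-19% up to 5=80-100%).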

[2] = tested on: Setaria faberi (SETFA); assay: Herbicidal glasshouse test, post-emergence, SETFA
Summary of the method: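 This post-emergence glasshouse herbicide test used potted Setaria faberi. Plants were cultivated for 8 days under controlled conditions (24/16° C. day/night, 14 hours light, 65% humidity) and then treated with an aqueous spray made from an acetone/water (50:50) solution containing 0.5% Tween 20. After 13 days of further growth with twice-daily watering, damage was rated on a five point scale (5=80-100%; 1=0-19%).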

[3] = tested on: Amaranthus retoflexus (AMARE); assay: Herbicidal glasshouse test, post-emergence, AMARE
Summary of the method: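 This post-emergence glasshouse test used AMARE plants raised in standard soil for 8 days under controlled conditions (24/16° C. day/night, 14 hours light, 65% humidity). Foliage was sprayed with formulated compound in acetone/water (50:50) containing 0.5% Tween 20. Plants were then watered twice daily, and after 13 days percentage damage was rated on a five point scale.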

[4] = tested on: Alopecurus myosuroides (ALOMY); assay: Herbicidal glasshouse test, pre-emergence, ALOMY
[5] = tested on: Solanum nigrum (SOLNI); assay: Herbicidal glasshouse test, pre-emergence, SOLNI
Summary of the method: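 This pre-emergence glasshouse herbicide test used Solanum nigrum sown in standard soil. One day after sowing, pots were sprayed with the compound in acetone/water (50:50) with 0.5% Tween 20. They were then grown at 24/16° C., with 14 hours light and 65% humidity, and watered twice daily. Percentage damage was scored after 13 days on a five point scale, where 5=80-100% and 1=0-19%.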

[6] = tested on: Alopecurus myosuroides (ALOMY); assay: Herbicidal glasshouse test, post-emergence, ALOMY
[7] = tested on: Solanum nigrum (SOLNI); assay: Herbicidal glasshouse test, post-emergence, SOLNI
[8] = tested on: Ipomoea hederacea (IPOHE); assay: Herbicidal glasshouse test, pre-emergence, IPOHE
[9] = tested on: Ipomoea hederacea (IPOHE); assay: Herbicidal glasshouse test, post-emergence, IPOHE
[10] = tested on: Setaria faberi (SETFA); assay: Herbicidal glasshouse test, pre-emergence, SETFA
[11] = tested on: Echinochloa crus-galli (ECHCG); assay: Herbicidal glasshouse test, post-emergence, ECHCG
Summary of the method: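 In this post-emergence glasshouse test, barnyard grass (ECHCG) was cultivated for 8 days under controlled conditions (24/16° C. day/night, 14 hours light, 65% humidity). It was then sprayed with an aqueous solution of the technical compound in acetone / water (50:50) with 0.5% Tween 20. Plants were kept under the same conditions and watered twice daily. After 13 days, percentage damage was rated on a five point scale (5=80-100%; 1=0-19%).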

[12] = tested on: Echinochloa crus-galli (ECHCG); assay: Herbicidal glasshouse test, pre-emergence, ECHCG
Summary of the method: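 In this pre-emergence glasshouse test, ECHCG seeds sown in pots of standard soil were sprayed one day after sowing with the test material in acetone/water (50:50) containing 0.5% Tween 20. Plants were kept at 24/16° C., 14 hours light, 65% humidity, and watered twice daily. Percentage damage was rated after 13 days on a 1–5 scale.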

Row | Structure (SMILES) | PRE Application AMARE, percentage damage (five point scale) [1] | POST Application SETFA, percentage damage (five point scale) [2] | POST Application AMARE, percentage damage (five point scale) [3] | PRE Application ALOMY, percentage damage (five point scale) [4] | PRE Application SOLNI, percentage damage (five point scale) [5] | POST Application ALOMY, percentage damage (five point scale) [6] | POST Application SOLNI, percentage damage (five point scale) [7] | PRE Application IPOHE, percentage damage (five point scale) [8] | POST Application IPOHE, percentage damage (five point scale) [9] | PRE Application SETFA, percentage damage (five point scale) [10] | POST Application ECHCG, percentage damage (five point scale) [11] | PRE Application ECHCG, percentage damage (five point scale) [12]
1 | Cc1ccccc1-n1c(=O)c(C(=O)Nc2nnnn2C)nn(C)c1=O [Compound 1.018] | 5 (5=80-100%) | 5 (5=80-100%) | 5 (5=80-100%) | 5 (5=80-100%) | 5 (5=80-100%) | 5 (5=80-100%) | 5 (5=80-100%) | 5 (5=80-100%) | 5 (5=80-100%) | 5 (5=80-100%) | 5 (5=80-100%) | 5 (5=80-100%)
2 | Cn1nnnc1NC(=O)c1nn(C)c(=O)n(-c2cc(Cl)cc(Cl)c2)c1=O [Compound 1.035] | 5 (5=80-100%) | 5 (5=80-100%) | 5 (5=80-100%) | 5 (5=80-100%) | 5 (5=80-100%) | 5 (5=80-100%) | 5 (5=80-100%) | 5 (5=80-100%) | 5 (5=80-100%) | 4 (4=60-79%) | 5 (5=80-100%) | 5 (5=80-100%)
3 | Cn1nnnc1NC(=O)c1nn(C)c(=O)n(Cc2ccccc2[N+](=O)[O-])c1=O [Compound 1.060] | 5 (5=80-100%) | 5 (5=80-100%) | 5 (5=80-100%) | 5 (5=80-100%) | 5 (5=80-100%) | 5 (5=80-100%) | 5 (5=80-100%) | 5 (5=80-100%) | 5 (5=80-100%) | 5 (5=80-100%) | 5 (5=80-100%) | 5 (5=80-100%)
4 | Cn1nnnc1NC(=O)c1nn(C)c(=O)n(-c2ccc(F)cc2Cl)c1=O [Compound 1.021] | 5 (5=80-100%) | 5 (5=80-100%) | 5 (5=80-100%) | 5 (5=80-100%) | 5 (5=80-100%) | 5 (5=80-100%) | 5 (5=80-100%) | 5 (5=80-100%) | 5 (5=80-100%) | 5 (5=80-100%) | 5 (5=80-100%) | 5 (5=80-100%)
